Laboratory results taken from article PMC12469503, “Exploring the Antimicrobial and Antiviral Properties of Cryptic Peptides from Human Fibrinogen” (International Journal of Molecular Sciences, 2025).
In brackets after ≈: the same amount, converted by molar mass. Like-named read-outs stand apart in the source and are kept apart here. Ends that are not written are not given here.

Key:
[1] = tested on: Staphylococcus aureus ATCC 6538P; settings: for MIC S. aur.: ATCC 6538
[2] = tested on: Enterococcus faecalis ATCC 29212
[3] = tested on: Staphylococcus aureus ATCC 6538P; settings: for MBC/MIC: Table 2, Staphylococcus aureus ATCC 6538P; for MBC: ATCC 6538
[4] = tested on: Staphylococcus aureus ATCC 6538P; assay: microbe, parasite or virus in culture; settings: ATCC6538P
[5] = tested on: Staphylococcus aureus ATCC 6538P; assay: microbe, parasite or virus in culture; settings: ATCC6538P; remark: listed apart in the source
[6] = tested on: Salmonella typhimurium ATCC 14028; assay: MIC, broth microdilution; format: cell-based; settings: Table 1; broth microdilution, Nutrient Broth 0.5×, overnight 37 °C; minimum of three independent experiments
Experimental: MIC values were determined on Gram-positive and Gram-negative bacteria by the broth microdilution method for antimicrobial peptides previously described [33, 89] with minor modifications.
Bacterial strains were grown in Luria-Bertani (LB) medium overnight at 37 °C and then diluted in Nutrient Broth at a final concentration of ~5 × 10^5 CFU/mL per well. Twofold serial dilutions of peptides were carried out in the test wells to obtain concentrations ranging from 50 μM to 0.05 μM. Plates were incubated overnight at 37 °C.
MIC value was defined as the lowest concentration at which growth was inhibited. Three independent experiments were performed for each MIC value.

[7] = tested on: Escherichia coli ATCC 25922
[8] = tested on: Klebsiella pneumonia ATCC 700603; settings: ATCC 700603
[9] = tested on: Acinetobacter baumanii ATCC 17878
[10] = tested on: Salmonella enteriditis 706 RIVM
[11] = tested on: Pseudomonas aeruginosa PAO1; settings: PAO1
[12] = tested on: Pseudomonas aeruginosa PA14
[13] = tested on: Pseudomonas aeruginosa RP73 (clinical isolate)
[14] = tested on: P. aeruginosa PAO1; settings: PAO1, 16 h
Experimental: Plates were incubated 16 h at 37 °C. FIC index was calculated as follows: FICA + FICB, where FICA = MIC of drug A in combination/MIC of drug A alone, and FICB = MIC of drug B in combination/MIC of drug B alone.

[15] = format: physicochemical
From the text: The six peptides were produced in the recombinant form by using a previously described strategy that exploit the frog protein onconase (ONC) as a carrier to drive the peptide to inclusion bodies. The fusion proteins were expressed in Escherichia coli strain BL21DE3, using the pET22b(+) vector and named: ONC-DCless-H6-(P)FIBα-GVV27, ONC-DCless-H6-(P)FIBα-SFR22, ONC-DCless-H6-(P)FIBβ-GVV28, ONC-DCless-H6-(P)FIBβ-NWK23, ONC-DCless-H6-(P)FIBγ-GII30, ONC-DCless-H6-(P)FIBγ-TWK25 (nucleotide and amino acid sequences are reported in Supplementary Figure S1). […] Peptides were released by hydrolysis of an acidic labile “Asp-Pro” sequence leading to recombinant peptides endowed with an additional Pro residue at the N-terminus. Thus, the recombinant forms of these peptides are herein named (P)FIBα-GVV27, (P)FIBα-SFR22, (P)FIBβ-GVV28, (P)FIBβ-NWK23, (P)FIBγ-GII30, (P)FIBγ-TWK25. Hydrolysis efficiencies of 95% were estimated for all the recombinant proteins (Supplementary Figure S3). To purify the recombinant peptides from the hydrolysis mixtures, the carrier and the uncleaved fusion protein were selectively precipitated by increasing the pH to 7 exploiting the fact that ONC is insoluble at pH higher than 5, whereas most AMPs are soluble also at neutral pH. […] Therefore, purification of (P)FIBα-SFR22, (P)FIBα-GVV27, (P)FIBβ-NWK23 and (P)FIBγ-TWK25 was first performed by selective precipitation, to remove the carrier and the uncleaved fusion protein, followed by Reverse Phase High-Performance Liquid Chromatography (RP-HPLC) on a C18 column, whereas purification of (P)FIBβ-GVV28 and (P)FIBγ-GII30 was performed directly by RP-HPLC omitting the selective precipitation step. Final yields of all recombinant peptides ranged from approximately 6 to 12 mg per liter of LB culture. Peptide purity, as determined by RP-HPLC, typically varied between 95% and 99% (Supplementary Figure S4).
Peptides (P)FIBα-GVV27, (P)FIBα-SFR22, (P)FIBβ-NWK23 and (P)FIBγ-TWK25 were separated from the carrier and the uncleaved fusion proteins as previously described. The hydrolysis mixture was neutralized to pH 7–7.2 by adding 1 M NH3 and incubated for 1 h at 25 °C under nitrogen atmosphere in a water bath. […] Supernatant and insoluble fraction were analyzed by SDS-PAGE. Concentration of the peptide into the soluble fraction was determined by spectrophotometric analyses using extinction coefficients (Supplementary Table S1) calculated by the ProtParam tool. After the selective precipitation step, purification of the peptide was performed by RP-HPLC. The linear gradients used are listed in Supplementary Table S2. Purification of (P)FIBβ-GVV28 and (P)FIBγ-GII30 was performed directly by RP-HPLC, omitting the selective precipitation step. Purified peptides were lyophilized and dissolved in deionized water. Samples were stored at −80 °C under nitrogen atmosphere. Purity of peptides was evaluated by RP-HPLC on Europa Protein 300 C18 column (5 μm, 25 × 1) using the linear gradients listed in Supplementary Table S2. The identity of the peptides was confirmed by mass spectrometry.

[16] = tested on: Pseudomonas aeruginosa PAO1; settings: for MBC: PAO1; for MBC/MIC: Table 2, Pseudomonas aeruginosa PAO1
[17] = tested on: HCoV-229E; settings: Vero cells; for antiviral activity against HCoV-229E: co-treatment assay, from 50 μM peptide
[18] = tested on: HSV-1; settings: Vero cells
[19] = tested on: P. aeruginosa PAO1 biofilm; assay: Antibiofilm attachment assay, confocal microscopy; settings: peptide 20 µM added with bacteria, stained after 4 h, Live/Dead BacLight, three independent experiments, t-test vs control
[20] = tested on: P. aeruginosa PAO1 biofilm; assay: Antibiofilm detachment assay, confocal microscopy; settings: peptide 20 µM on 24 h pre-formed biofilm, further 24 h, Live/Dead BacLight, three independent experiments
[21] = tested on: Sheep Red Blood Cells
Experimental: (§1) To assess the safety profile of the FIB-derived peptides, their hemolytic activity was evaluated by measuring the release of hemoglobin from sheep red blood cells after 1-h incubation with increasing peptide concentrations.
(§2) Briefly, Sheep Red Blood Cells were diluted in PBS 1× to reach a final concentration of 2%. Aliquots of diluted erythrocytes (100 μL) were added to each peptide solution (0–100 μM; 100 μL) in 96-well microtiter plates, and the mixture was incubated for 30 min under shaking (3000 rpm) at 37 °C. Following the incubation, a 3 min centrifugation at 4 °C was performed, and 50 µL of the supernatant from each sample were transferred to a 96 well plate. […] Hemolysis percentage was calculated by comparing samples to controls containing PBS (negative control) and 1% SDS (v/v) in PBS solution (positive control, inducing complete lysis). Hemolysis%=(Abs405 nm peptide−Abs405 nm negative control)/(Abs405 nm positive control−Abs405 nm negative control)×100.

[22] = tested on: Sheep Red Blood Cells; assay: Hemolysis assay; settings: read-out: IC50 (concentration required to induce 50% hemolysis), peptide 0.78–100 µM, 37 °C, absorbance 405 nm, 1% SDS positive control, triplicate
Experimental: as §1, §2

[23] = Table 1, control antibiotic, twofold dilutions from 64 µg/mL
[24] = Table 1, broth microdilution, Nutrient Broth 0.5×, ~5 × 10^5 CFU/mL, overnight 37 °C, minimum of three independent experiments
[25] = Table 1, broth microdilution, Nutrient Broth 0.5×, overnight 37 °C, minimum of three independent experiments
[26] = peptide 1 h before infection or 1 h after infection

Row | Compound | MBC/MIC [3] | MIC S. typ. [6] | MIC E. coli [7, 24] | MIC K. pne. [8] | MIC A. bau. [9, 25] | MIC S. ent. [10] | MIC PAO1 [11] | MIC PA14 [12, 25] | MIC RP73 ([13]; RP73 (clinical isolate)) | MIC S. aur. [1] | MIC E. fae. [2, 25] | solubility / aggregation at pH 7 [15] | MIC E. coli ([7]; ATCC 25922) | MIC A. bau. ([9]; ATCC 17878) | MIC S. ent. [10, 25] | MIC PA14 ([12]; PA14) | MBC [16] | MBC/MIC [16] | MBC [3] | fluorescence signal of SYTO 9 (live cells), attachment assay [19] | also measured
1 | CN[C@H](CC(C)C)C(=O)N[C@H]1C(=O)N[C@@H](CC(N)=O)C(=O)N[C@H]2C(=O)N[C@H]3C(=O)N[C@H](C(=O)N[C@H](C(=O)O)c4cc(O)cc(O)c4-c4cc3ccc4O)[C@H](O)c3ccc(c(Cl)c3)Oc3cc2cc(c3O[C@@H]2O[C@H](CO)[C@@H](O)[C@H](O)[C@H]2O[C@H]2C[C@](C)(N)[C@H](O)[C@H](C)O2)Oc2ccc(cc2Cl)[C@H]1O [Vancomycin, reference compound] | 1 |  |  |  |  |  |  |  |  |  |  |  |  |  |  |  |  |  |  |  | MIC S. aur. (antibiotics) [1, 23]: 0.5 µg/mL (≈ 0.345 µM); MIC E. fae. (antibiotics) [2, 23]: 2 µg/mL (≈ 1.38 µM); MIC [4]: 0.5 µg/mL (≈ 0.345 µM); MBC [5]: 0.5 µg/mL (≈ 0.345 µM)
2 | GIIWATWKTRWYSMKKTTMKIIPFNRLTIG [FIBγ-GII30] |  | 6.25 µM | 6.25 µM | 12.5 µM | 6.25 µM | 12.5 µM | 6.25 µM | 6.25 µM | 3.12 µM | 6.25 µM | 6.25 µM |  |  |  |  |  |  |  |  |  | FICI of peptide/tobramycin combinations [14]: 0.5–0.53
3 | H-PGVVWMNWKGSWYSMRKMSMKIRPFFPQQ [(P)FIBβ-GVV28] | 1 | 12.5 µM |  | 25 µM |  |  | 6.25 µM |  | 6.25 µM | 3.12 µM |  | particularly prone to aggregation and precipitation | 6.25 µM | 6.25 µM | 12.5 µM | 6.25 µM | 6.25 µM | 1 | 3.12 µM | significantly reduced | MIC E. fae. ([2]; ATCC 29212): 6.25 µM; antiviral activity against HCoV-229E in cell pre-treatment and post-infection treatment [17, 26]: appreciable antiviral activity; antiviral activity against HCoV-229E [17]: strong antiviral activity; antiviral activity against HSV-1 in cell pre-treatment and post-infection treatment [18, 26]: appreciable antiviral activity; SYTO 9 / PI signal, detachment assay [20]: significantly reducing the SYTO 9 signal
4 | H-PSFRGADYSLRAVRMKIRPLVTQ [(P)FIBα-SFR22] | 1 | 25 µM |  | >50 µM |  | >50 µM | 12.5 µM |  | 6.25 µM | 12.5 µM |  | soluble at pH 7 | 25 µM | 25 µM |  | 12.5 µM | 12.5 µM | 1 | 12.5 µM | did not cause any reduction | MIC E. fae. ([2]; ATCC 29212): 6.25 µM; release of hemoglobin at 100 µM [21]: limited release of hemoglobin; antiviral activity against HSV-1 ([18]; co-treatment assay, from 50 μM peptide): no significant effect; IC50 [22]: > 100 µM
5 | H-PTWKTRWYSMKKTTMKIIPFNRLTIG [(P)FIBγ-TWK25] | 1 | 3.12 µM | 3.12 µM | 6.25 µM | 3.12 µM |  | 3.12 µM | 3.12 µM |  | 1.56 µM | 3.12 µM | soluble at pH 7 |  |  | 3.12 µM |  | 3.12 µM | 1 | 1.56 µM | significantly reduced | MIC RP73 [13, 25]: 3.12 µM; release of hemoglobin at 100 µM [21]: limited release of hemoglobin; antiviral activity against HCoV-229E [17]: absence of efficacy; IC50 [22]: ~100 µM; SYTO 9 / PI signal, detachment assay [20]: significantly reducing the SYTO 9 signal
